Results on 14 compounds are retold here after patent publication US11534441B2, “MAP4K1 inhibitors” (Blueprint Medicines Corporation, priority 2020, dated 2022).

Structures are written as SMILES. Bounds are passed on as bounds.

The test system of one experiment is expanded CD3+ T cells. Kind of experiment: T cell enhancement of cytokines: IL2 measurement (HTRF) in expanded CD3+ T cells stimulated with anti-CD3/anti-CD28. The class given is cell-based, human. The note with it: IL-2 measurement. The procedure:
T cells are isolated from whole blood of healthy donors by immunomagnetic negative selection following manufacture's protocol (StemCell Technologies, human T cell isolation kit). Purity of isolated cells is assessed by flow cytometry and yields 95-98% CD3^+ T cells. For expansion of T cells, 1×10^6 cells/well are plated in serum free cell expansion media (ThermoFisher) containing 30 U of recombinant human IL2 (R&D) and stimulated with 25 ul of CD3/CD28 beads (Invitrogen) in 24 well plates for 3-4 days. T cells are then expanded in 175 cm flasks and maintained at a cell density of 1 to 2.5×10^6 cells/ml days by addition of ⅔ of fresh media every 2-3 days. After 10-14 days, cells are frozen in BamBanker freezing media (Thermo) and stored in liquid nitrogen.
For IL2 measurement, expanded CD3^+ T cells are dispensed at 100K cells/well (cultured in X-VIVO 10 Serum-free media) and are stimulated with plate-bound anti-CD3 and soluble anti-CD28 in the presence of vehicle or compound of the disclosure at various concentrations for 24 h. As outlined in the manufacturer's protocol (Cisbio), 16 μL of conditioned media is transferred to a white 384-well low volume plate. Following a 24 h incubation with the anti-IL2 antibodies, the homogenous time resolved fluorescence (HTRF) is measured.

In the next experiment the target is MAP4K1 (HPK1) (Homo sapiens (Human), UniProt Q92918). As to the kind of experiment: MAP4K1 (HPK1) biochemical enzymatic activity, electrophoretic mobility shift (EZReader 2), ATP at APPKM (26 μM). A digest of the protocol: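 Enzyme at 0.1-15 nM was incubated with 1.5 μM fluorescent peptide and ATP at the apparent Km (26 μM) in HEPES pH 7.5, MgCl2, DTT and Brij 35. The reaction ran at 25° C for 60-180 min with a 10-point, 4-fold compound series (1% DMSO) and was stopped with EDTA. Substrate and product peptides were resolved by microfluidic mobility shift, and their peak ratio gave activity.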
(In general: A gel shift assay detects complexes by their altered migration in electrophoresis.)

Setting [1] is: Homo sapiens, T-cell, class designation.
The mark [2] stands for this setting: Homo sapiens, T-cell, numeric value.

In general, EC50 refers to the concentration needed to bring the measured effect to its halfway point. Broadly, the IC50 is the concentration needed to halve the response being measured.

MAP4K1 (HPK1), sequence (Q92918 whole entry): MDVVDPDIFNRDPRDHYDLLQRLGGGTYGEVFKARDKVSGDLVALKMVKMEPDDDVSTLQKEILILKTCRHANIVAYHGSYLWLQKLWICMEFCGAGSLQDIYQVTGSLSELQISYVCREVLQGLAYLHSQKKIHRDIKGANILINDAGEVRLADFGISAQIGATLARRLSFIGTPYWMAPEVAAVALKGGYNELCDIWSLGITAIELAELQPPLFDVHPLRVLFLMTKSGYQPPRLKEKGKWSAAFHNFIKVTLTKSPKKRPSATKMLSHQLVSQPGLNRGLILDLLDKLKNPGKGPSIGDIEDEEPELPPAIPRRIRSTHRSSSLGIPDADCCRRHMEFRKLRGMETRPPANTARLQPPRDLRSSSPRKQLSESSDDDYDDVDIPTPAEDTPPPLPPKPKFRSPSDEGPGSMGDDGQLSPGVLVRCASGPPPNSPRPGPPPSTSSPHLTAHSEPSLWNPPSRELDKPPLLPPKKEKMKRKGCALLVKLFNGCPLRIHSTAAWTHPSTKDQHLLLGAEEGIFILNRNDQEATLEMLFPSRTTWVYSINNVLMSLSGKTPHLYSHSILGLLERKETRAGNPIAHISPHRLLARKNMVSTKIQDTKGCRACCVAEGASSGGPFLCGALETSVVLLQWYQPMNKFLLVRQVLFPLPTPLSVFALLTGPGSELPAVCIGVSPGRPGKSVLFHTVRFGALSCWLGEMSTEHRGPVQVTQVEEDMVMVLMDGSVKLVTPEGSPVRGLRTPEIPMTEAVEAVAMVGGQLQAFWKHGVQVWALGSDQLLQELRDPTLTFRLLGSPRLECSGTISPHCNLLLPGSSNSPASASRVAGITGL

For the compound `COc1ncc(C(C)(C)N)c2cc(Nc3ccc(C#N)c(C(C)(C)F)n3)ncc12` [Compound 28], the values for the EC50 in the experiment on expanded CD3+ T cells (setting [1]) and in the experiment on expanded CD3+ T cells (setting [2]) were below 35 nM and 31.4 nM, respectively. The 50% inhibitory concentration (IC50) was 0.31 to 1 nM at MAP4K1 (HPK1) (class designation) and 0.67 nM on MAP4K1 (HPK1) (numeric value).
`COc1ncc(C(C)(C)N)c2cc(Nc3ccc4c(n3)CC3(CC3)OC4=O)ncc12` [Compound 33]: the EC50 in the experiment on expanded CD3+ T cells (setting [1]) is below 35 nM; with expanded CD3+ T cells (setting [2]) it was 9.3 nM. For the same compound, the IC50 was below 0.3 nM on MAP4K1 (HPK1) (class designation) and 0.13 nM on MAP4K1 (HPK1) (numeric value).
In the same order, the values of `COc1ncc(C(C)(C)N)c2cc(Nc3ccc4c(n3)CC(C)(C)CC4=O)ncc12` [Compound 34, 2-((5-(2-Aminopropan-2-yl)-8-methoxy-2,7-naphthyridin-3-yl)amino)-7,7-dimethyl-7,8-dihydroquinolin-5 (6H)-one] are 35.1 to 45 nM, 45.6 nM, below 0.3 nM and 0.24 nM.
As to `CNc1ncc(C(C)(C)N)c2cc(Nc3ccc4c(n3)CC(C)(C)OC4=O)ncc12` [Compound 35], the EC50 is below 35 nM with expanded CD3+ T cells (class designation) and 23.5 nM in the experiment with expanded CD3+ T cells (numeric value). Further, the IC50 was 0.31 to 1 nM at MAP4K1 (HPK1) (class designation) and 0.41 nM on MAP4K1 (HPK1) (numeric value).
`COc1ncc(C(C)(C)N)c2cc(Nc3ccc4c(n3)CC(C)(C)OC4=O)ncc12` [Compound 36]: the EC50 with expanded CD3+ T cells (setting [1]) was below 35 nM; with expanded CD3+ T cells (setting [2]) it was 15.3 nM. The results for the 50% inhibitory concentration (IC50) at MAP4K1 (HPK1) (class designation) and on MAP4K1 (HPK1) (numeric value) were below 0.3 nM and 0.17 nM, respectively.
In the same order, the values of `COc1ncc(C(C)(C)N)c2cc(Nc3ccc4c(n3)[C@@H](C)[C@H](C)OC4=O)ncc12` [Compound 37] are below 35 nM, 1.9 nM, below 0.3 nM and 0.14 nM.
`COc1ncc(C(C)(C)N)c2cc(Nc3ccc4c(n3)[C@H](C)[C@@H](C)OC4=O)ncc12` [Compound 38]: the results for the EC50 in the experiment on expanded CD3+ T cells (setting [1]) and in the experiment on expanded CD3+ T cells (setting [2]) were below 35 nM and 5.8 nM, respectively. Also, the IC50 is below 0.3 nM at MAP4K1 (HPK1) (class designation) and 0.2 nM on MAP4K1 (HPK1) (numeric value).
With `CCOc1ncc(C(C)(C)N)c2cc(Nc3ccc4c(n3)C(C)(C)OC4=O)ncc12` [Compound 45], the results for the EC50 in the experiment on expanded CD3+ T cells (setting [1]) and with expanded CD3+ T cells (setting [2]) were above 55 nM and 70.3 nM, respectively. In addition, the IC50 on MAP4K1 (HPK1) (class designation) was 0.31 to 1 nM; on MAP4K1 (HPK1) (numeric value), 1.03 nM.
In the same order, the values of `COc1cnc(C(C)(C)N)c2cc(Nc3ccc4c(n3)CC(C)(C)OC4=O)ncc12` [Compound 46, 2-((5-(2-Aminopropan-2-yl)-8-methoxy-2,6-naphthyridin-3-yl)amino)-7,7-dimethyl-7,8-dihydro-5H-pyrano[4,3-b]pyridin-5-one] are below 35 nM, 34.3 nM, 0.31 to 1 nM and 0.94 nM.
For the compound `CNc1ncc(C(C)(C)N)c2cc(Nc3cnc(C#N)c(N4CCC[C@@H]4C)n3)ncc12` [Compound 48], the EC50 is above 55 nM with expanded CD3+ T cells (setting [1]) and 136 nM in the experiment on expanded CD3+ T cells (setting [2]). The IC50 was 1.1 to 10 nM at MAP4K1 (HPK1) (class designation) and 1.72 nM at MAP4K1 (HPK1) (numeric value).
On to `CCNc1ncc(C(C)(C)N)c2cc(Nc3ccc4c(n3)CC(C)(C)OC4=O)ncc12` [Compound 53], for which the results for the EC50 with expanded CD3+ T cells (setting [1]) and with expanded CD3+ T cells (setting [2]) were below 35 nM and 17.2 nM, respectively. In addition, the results for the half-maximal inhibitory concentration (IC50) on MAP4K1 (HPK1) (class designation) and at MAP4K1 (HPK1) (numeric value) were 0.31 to 1 nM and 0.36 nM, respectively.
In the same order, the values of `CCOc1ncc(C(C)(C)N)c2cc(Nc3ccc4c(n3)CC(C)(C)OC4=O)ncc12` [Compound 54] are below 35 nM, 9.3 nM, below 0.3 nM and 0.25 nM.
On to `COc1ncc(C(C)(C)N)c2cc(Nc3ccc4c(n3)[C@H](C)C(C)(C)OC4=O)ncc12` [Compound 55], for which the EC50 is below 35 nM with expanded CD3+ T cells (setting [1]) and 11.6 nM with expanded CD3+ T cells (setting [2]). The IC50 was below 0.3 nM on MAP4K1 (HPK1) (class designation) and 0.18 nM on MAP4K1 (HPK1) (numeric value).
In the same order, the values of `COc1ncc(C(C)(C)N)c2cc(Nc3ccc4c(n3)[C@@H](C)C(C)(C)OC4=O)ncc12` [Compound 56] are below 35 nM, 6.6 nM, below 0.3 nM and 0.1 nM.
